# Experimental data published in patent EP1655608A1, “CFTR as a component of an autophagy signaling pathway, applications thereof to autophagic diseases, and determination of cystic fibrosis as an autophagic disease” (priority 2004, dated 2006).
# Legend:
# PKA = assay: CREB phosphorylation as readout of PKA activity; assay type: cell-based
# Description: The emerging issue is therefore how Lindane could activate CFTR Cl^- currents. One possibility would be that Lindane directly activates CFTR, but this appears unlikely because it required minutes instead of seconds to increase Cl^- conductance. […] To further explore this hypothesis, we tested the effect of Lindane on the renal proximal cell line (PCT1). […] Of particular interest, we provide several lines of evidence that the CFTR Δex10 channels remained functional in response to Lindane in PCT cells. […] These finding provide the first evidence that an agonist, e.g. Lindane, could activate CFTR Cl- current independently of PKA, raising the promise for new strategies using Lindane to restore Cl-conductance in cystic fibrosis patients with CFTR variants on PKA sites.
# CFTR-EGFP = assay: Subcellular distribution of CFTR-EGFP by confocal microscopy; assay type: cell-based, hamster; conditions: BHK cells, Lindane 24 h, NH4Cl 5 mM in medium
# Experimental: BHK-21 (Baby hamster kidney epithelial cells, ATCC) stably expressing CFTR-EGFP cell-line was maintained in Dulbecco's modified Eagle's medium (DMEM, GIBCO) containing 10% fetal calf serum (GIBCO).
# Autophagy was induced either by starvation or by treatment with Lindane under nutrient-rich condition. For Lindane treatment, cells were serum-starved for 2-16 hours in DMEM/Ham's F12 (1:1, GIBCO #61965-026: F12 GIBCO #31765-027) supplemented with either 1% Insulin-Transferrin-SeleniumA (GIBCO #51300-044) or 0.1% bovine serum albumin (A7030, Sigma) and treated with Lindane (50 µM, Sigma, H4500).
# renal cells = assay: Lindane-induced autophagic vacuolation of renal cells (electron microscopy); assay type: cell-based, mouse
# Experimental: To address the importance of CFTR in autophagy, renal cells derived from distal tubules or the proximal convoluted tubules of Wild type (WT or CFTR^+/+) or CFTR deficient (CFTR^-/-) mice (40) were isolated and immortalized with the pSV3 neo vector, as described below (55).
# The ultrastructural changes caused by Lindane or starvation in Sertoli and renal cells were analysed by transmission electron microscopy, as previously described (57). Briefly, control and Lindane-treated cells (50 µM, 24 h) were scraped from the culture dish in PBS EDTA 1mM, pelleted and fixed with ice-cold 2.5% glutaraldehyde (TAAB, #G004) in 0.1 M Na cacodylate, pH 7.4 for at least 1 h at 4°C. Cell pellets were then rinsed in cacodylate buffer, postfixed in 1% OsO4 for 1 h at 4°C, dehydrated through graded ethanol washes, and embedded in epoxy resin. Oriented […] sections were obtained with diamond knives, and representative areas were chosen for ultra-thin sectioning. Thin […] sections were mounted on copper mesh grids, stained with uranyl acetate and lead citrate, and examined on a JEOL 1200 EXII electron microscope. 30-50 micrographs were taken randomly from each sample at primary magnification × 10,000.
# p38 = conditions: Lindane-treated cells; ref (38); cited from earlier work
structure (smiles),measurement,setting,value
"Cl[C@H]1[C@H](Cl)[C@@H](Cl)[C@@H](Cl)[C@H](Cl)[C@H]1Cl [Lindane, γ-hexachlorocyclohexane]",CREB phosphorylation,PKA; Lindane treatment,dramatic phosphorylation of CREB
same,PKA activation,PKA; concluded from H89 experiment,did not activate PKA
same,distribution of CFTR,CFTR-EGFP,redistributed from plasma membrane to vacuoles
same,autophagic vacuolation in CFTR-expressing renal cells,renal cells; CFTR^+/+ renal cells,"could be generalized to renal cells, provided CFTR was expressed"
same,response in renal cells lacking CFTR expression,renal cells; CFTR^-/- renal cells,dramatic accumulation of lamellar structures and little if any large autophagic vacuoles
same,activation of Jun kinases or p38,p38,not activated
